Converted amounts (≈) assume the structure as drawn. “And” between values parts separate entries of the source, which are not always exact repeats. Equal values may be shown once.
Columns and labels:
[1] = system: Gram-negative bacteria; test: Broth microdilution, summary over the Gram-negative panel; assay type: cell-based
Description: In vitro antimicrobial activity assays - Methodology
The examined compounds 1 - 24 were screened in vitro for antibacterial and antifungal activities using the broth microdilution method according to procedure reported earlier by our research group and European Committee on Antimicrobial Susceptibility Testing (EUCAST) and Clinical and Laboratory Standards Institute (CLSI) guidelines against a panel of reference and clinical or saprophytic strains of microorganisms, in-cluding Gram-positive bacteria, Staphylococcus aureus ATCC 43300 (Methicillin Resistant S. aureus – MRSA), Staphylococcus aureus ATCC 29213 (Methicillin Susceptible S. aureus – MSSA), Staphylococcus epidermidis ATCC 12228, Enterococcus faecalis ATCC 29212, Micro-coccus luteus ATCC 10240, Bacillus subtilis ATCC 6633 and Bacillus cereus ATCC 10876), Gram-negative bacteria (Bordetella bronchiseptica ATCC 4617, Escherichia coli ATCC 25922, Klebsiella pneumoniae ATCC 13883, Proteus mirabilis ATCC 12453, Salmonella typhimurium ATCC 14028 and Pseudomonas aeruginosa ATCC 9027) and fungi belonging to yeasts (Can-dida albicans ATCC 10231, Candida albicans ATCC 2091, Candida parapsilosis ATCC 22019, Candida glabrata ATCC 90030 and Candida krusei ATCC 14243). The microorganisms be-longing to ATCC came from American Type Culture Collection, routinely used for the evaluation of antimicrobials. All the used microbial cultures were first subcultured on nu-trient agar or Sabouraud agar at 35°C for 18-24 h or 30°C for 24-48 h for bacteria and fungi, […]
The surface of Mueller-Hinton agar (for bacteria) and RPMI 1640 with MOPS (for fungi) were inoculated with the suspensions of bacterial or fungal species. Microbial suspensions were prepared in sterile saline with an optical density of McFarland standard scale 0.5.
Samples containing examined compounds were dissolved in dimethyl sulfoxide (DMSO).
Furthermore, bacterial and fungal suspensions were put onto Petri dishes with solid me-dia containing 2 mg/mL of the tested compounds followed incubation at 37°C for 24h and 30°C for 48h for bacteria and fungi, respectively. The inhibition of microbial growth was judged by comparison with a control culture prepared without any sample tested. Ciprof-loxacin, vancomycin, nitrofurantoin, cefuroxime, ampicillin or nystatin (Sigma) were used as a reference antibacterial or antifungal compounds, respectively.
Subsequently, the MIC (Minimal Inhibitory Concentration) of the compounds was ex-amined by the microdilution broth method, using their two-fold dilutions in Mueller- […]
Hinton broth or (for bacteria) and RPMI 1640 broth with MOPS (for fungi) prepared in 96-well polystyrene plates. Final concentrations of the compounds ranged from 1000 to 0.488 µg/ml. Microbial suspensions were prepared in 0.85% NaCl with an optical density of 0.5 McFarland standard. Next each bacterial or fungal suspension was added per each well containing broth and various concentrations of the examined compounds. After incuba-

[2] = in vivo; details: in vivo
Protocol: Wild-type AB strain zebrafish (Danio rerio) were housed in the Experimental Medicine Centre of Medical University of Lublin (Lublin, Poland), where all the experimental procedures on embryos and larvae were carried out. The animals were kept on a recirculating water supply at 26 ± 1 °C and a 10/14 dark–light cycle, and they were fed with artemia and commercial feed. Danio rerio embryos were obtained from females between 4 and 15 months of age. […] In order to avoid genetic bias in the study, eggs were randomly collected from at least three breeding groups, rinsed, and placed in Petri dishes in the cultured medium, which for Danio rerio is E3 solution. […] In accordance with the legislation of the European Union and Poland, the experiments performed on the earliest life-stages of Danio rerio until 120 h post-fertilization (120 hpf), not defined as protected, are not subject to regulations for animal experimentation.
They address the testing of chemicals using the Fish Embryo Acute Toxicity (FET) test with the species Danio rerio.
Immediately after fertilization, eggs were placed in sterile 24-well plates and exposed for 96 h to at least five concentrations of the test chemical, ranging from 1 to 500 µM and prepared ex tempore on each day of exposure, according to the principle of one egg per well and one concentration per plate. In each plate, 20 wells were filled with the solutions of the tested substance, and 4 wells of the last column were a negative internal control with E3 medium. Each well was filled with 2 mL of solution. Positive control plates were also prepared according to this scheme with 4 mg/L of 3,4-dichloroaniline (Sigma-Aldrich, Poznań, Poland) and a negative control with E3, and a negative solvent control with 1% DMSO, which was used as a solvent for the tested substances. At four time points, microscopic observations were made every 24 h. As indicators of mortality (so-called terminal observations; when at least one of these occurs, embryonic death is declared), the following were recorded: the coagulation of embryos, a lack of somite formation, a lack of detachment of the tail from the yolk sac and a lack of a heartbeat, which was observed from the 48th hour of the study. To confirm the absence of a heartbeat, a microscopic observation was conducted at 80× magnification for one minute. Then, the solutions of the tested chemicals, to maintain their constant composition throughout the test, were replaced with fresh ones, and the plates were incubated for another 24 h in an incubator at 26 ± 1 °C. […] In addition, a quantitative and qualitative summary of the morphological and physiological abnormalities that occurred in the tested Danio rerio embryos and larvae was also made. These included yolk sac edema, pericardial edema, spinal flexure, head deformities, tail deformities, developmental delay defined as a lack of hatching success for 96 hpf larvae, and also bradycardia.
Regression analysis was performed with Excel, and the above-mentioned values were obtained from the linear type of regression analysis. […] The results obtained from the heart rate study of 96 hpf zebrafish larvae were subjected to statistical analysis using one-way analysis of variance (ANOVA) and a post hoc Bonferroni test. The significance level was taken as p < 0.05.

CCCc1ccc(/C=N/NC(=O)c2ccc(O)cc2O)cc1 [Compound 13, 2,4-dihydroxy-N-[(4-propylphenyl)methylidene]benzohydrazide]
melting point: 197 °C
MBC [1]: > 1000 µg/mL
MIC [1]: 500 to 1000 µg/mL (≈ 1680 to 3350 µM)

O=C(N/N=C/c1cc(I)cc(I)c1O)c1ccc(O)cc1O [Compound 18, 2,4-dihydroxy-N-[(2-hydroxy-3,5-diiodophenyl)methylidene]benzohydrazide]
melting point: 220 °C
MBC [1]: > 1000 µg/mL
MIC [1]: 500 to 1000 µg/mL (≈ 954 to 1910 µM)

O=C(N/N=C/c1ccccc1[N+](=O)[O-])c1ccc(O)cc1O [Compound 19, 2,4-dihydroxy-N-[(2-nitrophenyl)methylidene]benzohydrazide]
MIC [1]: 500 to 1000 µg/mL (≈ 1660 to 3320 µM)

O=C(N/N=C/c1cccc([N+](=O)[O-])c1)c1ccc(O)cc1O [Compound 20, 2,4-dihydroxy-N-[(3-nitrophenyl)methylidene]benzohydrazide]
LC50 at 96 h [2]: 34.8 mM and 10500 µg/mL

O=C(N/N=C/c1ccc([N+](=O)[O-])cc1)c1ccc(O)cc1O [Compound 21, 2,4-dihydroxy-N-[(4-nitrophenyl)methylidene]benzohydrazide]
LC50 at 96 h [2]: 370 µM and 110 µg/mL

O=C(N/N=C/c1ccccc1Cl)c1ccc(O)cc1O [Compound 22, N-[(2-chlorophenyl)methylidene]-2,4-dihydroxybenzohydrazide]
LC50 at 96 h [2]: 56.6 µM and 16.4 µg/mL

O=C(N/N=C/c1ccccc1Br)c1ccc(O)cc1O [Compound 23, N-[(2-bromophenyl)methylidene]-2,4-dihydroxybenzohydrazide]
LC50 at 96 h [2]: 85.6 µM and 30.4 µg/mL

O=C(N/N=C/c1ccccc1F)c1ccc(O)cc1O [Compound 24, N-[(2-fluorophenyl)methylidene]-2,4-dihydroxybenzohydrazide]
LC50 at 96 h [2]: 4.24 mM and 1160 µg/mL

From article PMC10743905, “Design, Synthesis, and In Vitro and In Vivo Bioactivity Studies of Hydrazide–Hydrazones of 2,4-Dihydroxybenzoic Acid” (International Journal of Molecular Sciences, 2023)
